Test results as given in US5385911A, “Anti-herpes castanospermine esters” (priority 1990, dated 1995).

Assays:
[1] = tested on: viral protein glycosylation; conditions: cited from earlier work
HIV glycoproteins = conditions: cited from earlier work; for formation of syncytia: HIV
Herpes infections = conditions: in man; cited from earlier work
HSV = conditions: cited from earlier work
[2] = at high dosage; cited from earlier work
HSV1 and HSV2 = conditions: cited from earlier work
HSV2 strain HG52 = experiment: plaque-reduction assay, HSV2 strain HG52 in MRC5 cells; assay type: cell-based, HSV2 strain HG52; human embryonic fibroblast cells (MRC5); conditions: Human alphaherpesvirus 2, 72 h, 3 days incubation, read-out: ED50 HSVII
Description: (§1) Antiviral activity of the compounds of formula (1) can assessed by the plaque-reduction assay as previously described by Tyms et al., J. Antimicrobial Chemotherapy, 8, 65-72 (1981). Briefly, human embryonic fibroblast cells (MRC5) were cultured in 24-well tissue culture trays in the presence of Eagles' minimum essential medium (MEM) supplemented with 10% fetal calf serum. When cell monolayers were semi-confluent, they were inoculated with 30-50 plaque-forming units of HSV2 strain HG52 or HSV1 strain 17[…]. General Virology, 55, 315-331 (1981). […] After 3 days incubation, cells were fixed in 10% formalin in saline and subsequently stained with 0.3% methylene blue. Dose-responselines were plotted from the mean number of plaques present versus the log of the concentration of the compound. The 50% effective dose (ED50) was computed after linear regression analysis.

HSV1 strain 17i = experiment: plaque-reduction assay, HSV1 strain 17i in MRC5 cells; assay type: cell-based, HSV1 strain 17i; human embryonic fibroblast cells (MRC5); conditions: Human alphaherpesvirus 1, 72 h, 3 days incubation, read-out: ED50 HSVI
Description: as §1

Molecule: 2-deoxy-2-fluoroglucose
- inhibition of viral protein glycosylation [1]: inhibit viral protein glycosylation by a different mechanism

Molecule: O=CC[C@@H](O)[C@H](O)[C@H](O)CO [2-deoxy-D-glucose]
- formation of syncytia (HIV glycoproteins): block the formation of syncytia
- expression of HIV glycoproteins (HIV glycoproteins): inhibit expression of HIV glycoproteins
- efficacy in the treatment of Herpes infections (Herpes infections): has shown efficacy in the treatment of Herpes infections in man
- activity against HSV (HSV): active against HSV

Molecule: O=CC[C@@H](O)[C@H](O)[C@H](O)CO [2-deoxyglucose]
- inhibition of viral protein glycosylation [1]: inhibit viral protein glycosylation by a different mechanism

Molecule: Nc1nc2c(ncn2COCCO)c(=O)[nH]1 [Acyclovir]
- solubility [2]: Poor solubility at high dosage
- antiviral effect (HSV1 and HSV2): potent antiviral effect

Molecule: CCCC(=O)O[C@H]1CN2CC[C@H](O)[C@@H]2[C@@H](O)[C@@H]1O [MDL 28,574, [1S-(1α,6β,7α,8β,8aβ)]-octahydro-1,6,7,8-indolizinetetrol 6-butanoate]
- EC50 (HSV2 strain HG52): ≤ 22 µg/mL
- EC50 (HSV1 strain 17i): ≤ 75 µg/mL

Molecule: Cc1ccc(C(=O)O[C@H]2CN3CC[C@H](O)[C@@H]3[C@@H](O)[C@@H]2O)cc1 [MDL 29,204]
- EC50 (HSV2 strain HG52): ≤ 20 µg/mL

Molecule: CCC=CCC(=O)O[C@H]1CN2CC[C@H](O)[C@@H]2[C@@H](O)[C@@H]1O [MDL 29,513, [1S-(1α,6β,7α,8β,8aβ)]-octahydro-1,6,7,8-indolizinetetrol 6-(3-hexenoate)]
- EC50 (HSV2 strain HG52): ≤ 5 µg/mL
- EC50 (HSV1 strain 17i): ≤ 5 µg/mL

Molecule: CCCCCCCC(=O)O[C@H]1CN2CC[C@H](O)[C@@H]2[C@@H](O)[C@@H]1O [MDL 29,797, [1S-(1α,6β,7α,8β,8aβ)]-octahydro-1,6,7,8-indolizinetetrol 6-octanoate]
- EC50 (HSV2 strain HG52): ≤ 5 µg/mL
- EC50 (HSV1 strain 17i): ≤ 10 µg/mL

Molecule: O=C(O[C@H]1CN2CC[C@H](O)[C@@H]2[C@@H](O)[C@@H]1O)c1ccccc1 [MDL 43,305, [1S-(1α,6β,7α,8β,8aβ)]-octahydro-1,6,7,8-indolizinetetrol 6-benzoate]
- EC50 (HSV2 strain HG52): ≤ 20 µg/mL

Molecule: CCC(O)[C@H](N)C(=O)O (stereo partly drawn) [β-hydroxy-norvaline]
- formation of syncytia (HIV glycoproteins): block the formation of syncytia
- expression of HIV glycoproteins (HIV glycoproteins): inhibit expression of HIV glycoproteins
